# Experimental data: US9440933B2, “Azole derivative, method for producing same, intermediate compound, and agricultural or horticultural chemical agent and industrial material protecting agent” (KUREHA CORPORATION, priority 2011, dated 2016)
# Assays:
# [1] = tested on: wheat leaf rust-causing microbe; experiment: Wheat leaf rust-controlling activity (foliar spray, pot test); format: in vivo, Puccinia recondita; conditions: Concentration 25 g/ha; wettable powder sprayed on wheat (Norin No. 61), 9 to 14 days after inoculation
# [2] = tested on: Wheat eye spot-causing microbe (Pseudocercoporella herpotrichoides); experiment: Antimicrobial activity to various pathogenic microbes: P.h; conditions: 50 mg/L
# Method: (§1) An inventive compound was dissolved in dimethylsulfoxide 2 ml. The solution 0.6 ml was added to a PDA medium (potato-dextrose-agar medium) 60 ml at around 60° C.
# (§2) The plates were cultured at 25° C. for 14 days after inoculation and the diameter of the microbial colony was determined. Hyphal expansion-inhibiting rate was calculated according to the following equation: R=100(dc−dt)/dc (wherein, R: hyphal expansion-inhibiting rate (%), dc: diameter of microbial colony on non-treated flat plate, dt: diameter of microbial colony on chemically-treated flat plate).
# (§3) The results thus obtained were evaluated in 5 stages according to the criteria below:
# Wheat eye spot-causing microbe (Pseudocercoporella herpotrichoides) P.h
# [3] = tested on: Sclerotinia rot-causing microbe (Sclerotinia sclerotiorum); experiment: Antimicrobial activity to various pathogenic microbes: S.s; conditions: 50 mg/L
# Method: as §1
# (§4) A flat plate containing a test microbe (wheat leaf blight-causing microbe) cultured separately was punched into pieces with a cork borer having a diameter of 4 mm and the circular plate obtained was placed on the flat plate media containing the chemical described above. The plates were cultured at 25° C. for 14 days after inoculation and the diameter of the microbial colony was determined. Hyphal expansion-inhibiting rate was calculated according to the following equation: R=100(dc−dt)/dc (wherein, R: hyphal expansion-inhibiting rate (%), dc: diameter of microbial colony on non-treated flat plate, dt: diameter of microbial colony on chemically-treated flat plate).
# as §3
# Sclerotinia rot-causing microbe (Sclerotinia sclerotiorum) S.s
# [4] = tested on: Barley loose smut-causing microbe (Ustilago nuda); experiment: Antimicrobial activity to various pathogenic microbes: U.n; conditions: 50 mg/L
# Method: as §1, §2, §3
# Barley loose smut-causing microbe (Ustilago nuda) U.n
# [5] = tested on: Apple alternaria blotch-causing microbe (Alternaria alternata); experiment: Antimicrobial activity to various pathogenic microbes: A.m; conditions: 50 mg/L
# Method: as §1, §4
# (§5) In this Test Example, the antimicrobial activity of the inventive compounds to various plant disease-causing fungi and industrial material-eroding microorganisms was studied by the method described in Example 1.
# as §3
# Apple alternaria blotch-causing microbe (Alternaria alternata) A.m
# wheat = experiment: Damage to wheat (growth inhibition) by seed treatment (pot test); conditions: 2 mg in DMSO applied to wheat seeds 1 g, 14 to 28 days after seeding, larger index = smaller damage
# [6] = tested on: Barley scald-causing microbe (Rhynchosporium secalis); experiment: Antimicrobial activity to various pathogenic microbes: R.sec; conditions: 50 mg/L
# Method: as §1, §4, §5, §3
# Barley scald-causing microbe (Rhynchosporium secalis) R.sec
# [7] = tested on: Wheat fusarium blight-causing microbe (Fusarium graminearum); format: cell-based; conditions: 50 mg/L
# [8] = tested on: Wheat glume blotch-causing microbe (Phaeosphaeria nodorum); experiment: Antimicrobial activity to various pathogenic microbes: P.n; conditions: 50 mg/L
# Method: as §1, §4, §5, §3
# Wheat glume blotch-causing microbe (Phaeosphaeria nodorum) P.n
# [9] = tested on: Rice blast-causing microbe (Pyricularia oryzae); format: cell-based; conditions: 50 mg/L
# [10] = tested on: Cucumber Fusarium wilt-causing microbe (Fusarium oxysporum); experiment: Antimicrobial activity to various pathogenic microbes: F.c; conditions: 50 mg/L
# Method: as §1, §4, §3
# [11] = tested on: wheat powdery mildew-causing microbes; experiment: Controlling activity to wheat powdery mildew of seed treatment (pot test); format: in vivo, Erysiphe graminis f. sp tritici; conditions: 2 mg in DMSO applied to wheat seeds 1 g, 14 to 28 days after seeding
# Method: Controlling activity to wheat powdery mildew was examined in a pot test. Each of the inventive compounds […]-53, and a comparative compound (1) was weighed in an amount of 2 mg and dissolved in DMSO (18 μl). The solution thus prepared was applied to wheat seeds 1 g in a vial, 8 wheat seeds were seeded in a 80 cm^2 pot. The wheat was grown, as water was supplied from blow, in a greenhouse where wheat powdery mildew-causing microbes are present abundantly. The incidence rate was determined and the controlling rate and additionally the controlling index calculated 14 to 28 days after seeding. The controlling rate was calculated and the wheat powdery mildew controlling index determined according to the following equation: Controlling rate=(1-Incidence rate in treated region/Incidence rate in non-treated region)×100(%) [table]
# [12] = tested on: Rice bakanae disease-causing microbe (Gibberella fujikuroi); experiment: Antimicrobial activity to various pathogenic microbes: G.f; conditions: 50 mg/L
# Method: as §1, §4, §3
# [13] = tested on: Gray mold-causing microbe (Botrytis cinerea); experiment: Antimicrobial activity to various pathogenic microbes: B.c; conditions: 50 mg/L
# Method: as §1, §4, §5, §3
# Gray mold-causing microbe (Botrytis cinerea) B.c
# [14] = tested on: wheat leaf blight-causing microbe; experiment: Antimicrobial activity to wheat leaf blight-causing microbe (PDA plate, hyphal expansion inhibition); format: cell-based, Septoria tritici; conditions: PDA medium, 25° C., 14 days; for inhibition at 50 µg/mL / Growth inhibition: Concentration 50 mg/L; for inhibition at 50 µg/mL: read-out: Growth inhibition
# Method: In this Test Example, antimicrobial activity of the inventive compounds to wheat leaf blight-causing microbe was determined and compared with that of the comparative compound (1).
Compound,Controlling index [1],Growth inhibition (hyphal expansion-inhibiting rate grade) P.h [2],Growth inhibition (hyphal expansion-inhibiting rate grade) S.s [3],Growth inhibition (hyphal expansion-inhibiting rate grade) U.n [4],Growth inhibition (hyphal expansion-inhibiting rate grade) A.m [5],Damage index Growth inhibition (wheat),Growth inhibition (hyphal expansion-inhibiting rate grade) R.sec [6],Growth inhibition (hyphal expansion-inhibiting rate grade) F.g [7],Growth inhibition (hyphal expansion-inhibiting rate grade) P.n [8],Growth inhibition (hyphal expansion-inhibiting rate grade) P.o [9],Growth inhibition (hyphal expansion-inhibiting rate grade) F.c [10],Controlling index Wheat powdery mildew [11],Growth inhibition (hyphal expansion-inhibiting rate grade) G.f [12],Growth inhibition (hyphal expansion-inhibiting rate grade) B.c [13],inhibition at 50 µg/mL ([14]; 336 h) [%],"inhibition at 1.25 µg/mL ([14]; 336 h, test sample concentration 1.25 mg/L, read-out: hyphal expansion-inhibiting rate) [%]",Growth inhibition [14]
"CCOC(=O)[C@]1(C)CC[C@@H](Cc2ccc(Cl)cc2)[C@]1(O)Cn1cncn1 (racemic) [Compound I-3, ethyl-(1RS,2RS,3SR)-3-(4-chlorobenzyl)-2-hydroxy-1-methyl-2-(1H-1,2,4-triazol-1-ylmethyl)cyclopentanecarboxylate]",5 (81 to 100),5 (hyphal expansion-inhibiting rate: 80% or more),5 (hyphal expansion-inhibiting rate: 80% or more),5 (hyphal expansion-inhibiting rate: 80% or more),5 (hyphal expansion-inhibiting rate: 80% or more),1 (60% or more and less than 80%),5 (hyphal expansion-inhibiting rate: 80% or more),5 (hyphal expansion-inhibiting rate: 80% or more),5 (hyphal expansion-inhibiting rate: 80% or more),5 (hyphal expansion-inhibiting rate: 80% or more),5 (hyphal expansion-inhibiting rate: 80% or more),5 (Controlling rate: 40 or more),5 (hyphal expansion-inhibiting rate: 80% or more),5 (hyphal expansion-inhibiting rate: 80% or more),> 80,≥ 80,–
"C=CCOC(=O)[C@]1(C)CC[C@@H](Cc2ccc(Cl)cc2)[C@]1(O)Cn1cncn1 (racemic) [Compound I-4, allyl-(1RS,2RS,3SR)-3-(4-chlorobenzyl)-2-hydroxy-1-methyl-2-(1H-1,2,4-triazol-1-ylmethyl)cyclopentanecarboxylate]",5 (81 to 100),5 (hyphal expansion-inhibiting rate: 80% or more),5 (hyphal expansion-inhibiting rate: 80% or more),5 (hyphal expansion-inhibiting rate: 80% or more),5 (hyphal expansion-inhibiting rate: 80% or more),–,5 (hyphal expansion-inhibiting rate: 80% or more),5 (hyphal expansion-inhibiting rate: 80% or more),5 (hyphal expansion-inhibiting rate: 80% or more),5 (hyphal expansion-inhibiting rate: 80% or more),5 (hyphal expansion-inhibiting rate: 80% or more),–,5 (hyphal expansion-inhibiting rate: 80% or more),5 (hyphal expansion-inhibiting rate: 80% or more),> 80,–,–
"C#CCOC(=O)[C@]1(C)CC[C@@H](Cc2ccc(Cl)cc2)[C@]1(O)Cn1cncn1 (racemic) [Compound I-5, 2-propynyl-(1RS,2RS,3SR)-3-(4-chlorobenzyl)-2-hydroxy-1-methyl-2-(1H-1,2,4-triazol-1-ylmethyl)cyclopentanecarboxylate]",5 (81 to 100),5 (hyphal expansion-inhibiting rate: 80% or more),5 (hyphal expansion-inhibiting rate: 80% or more),5 (hyphal expansion-inhibiting rate: 80% or more),5 (hyphal expansion-inhibiting rate: 80% or more),1 (60% or more and less than 80%),5 (hyphal expansion-inhibiting rate: 80% or more),5 (hyphal expansion-inhibiting rate: 80% or more),5 (hyphal expansion-inhibiting rate: 80% or more),5 (hyphal expansion-inhibiting rate: 80% or more),5 (hyphal expansion-inhibiting rate: 80% or more),5 (Controlling rate: 40 or more),5 (hyphal expansion-inhibiting rate: 80% or more),5 (hyphal expansion-inhibiting rate: 80% or more),–,–,5 (hyphal expansion-inhibiting rate: 80% or more)
"COC(=O)[C@@]1(CCl)CC[C@H](Cc2ccc(F)cc2)[C@@]1(O)Cn1cncn1 (racemic) [Compound I-78, methyl-(1RS, 2SR,3RS)-3-(4-fluorobenzyl)-1-chloromethyl-2-hydroxy-2-(1H-1,2,4-triazol-1-ylmethyl)cyclopentanecarboxylate]",5 (81 to 100),5 (hyphal expansion-inhibiting rate: 80% or more),5 (hyphal expansion-inhibiting rate: 80% or more),5 (hyphal expansion-inhibiting rate: 80% or more),5 (hyphal expansion-inhibiting rate: 80% or more),–,5 (hyphal expansion-inhibiting rate: 80% or more),5 (hyphal expansion-inhibiting rate: 80% or more),5 (hyphal expansion-inhibiting rate: 80% or more),5 (hyphal expansion-inhibiting rate: 80% or more),5 (hyphal expansion-inhibiting rate: 80% or more),–,5 (hyphal expansion-inhibiting rate: 80% or more),5 (hyphal expansion-inhibiting rate: 80% or more),> 80,–,–
"C#CCOC(=O)[C@]1(C)CC[C@H](Cc2ccc(Cl)cc2)[C@@]1(O)Cn1cncn1 (racemic) [Compound I-135, 2-propynyl-(1RS,2SR,3RS)-3-(4-chlorobenzyl)-2-hydroxy-1-methyl-2-(1H-1,2,4-triazol-1-ylmethyl)cyclopentanecarboxylate]",5 (81 to 100),5 (hyphal expansion-inhibiting rate: 80% or more),5 (hyphal expansion-inhibiting rate: 80% or more),5 (hyphal expansion-inhibiting rate: 80% or more),5 (hyphal expansion-inhibiting rate: 80% or more),–,5 (hyphal expansion-inhibiting rate: 80% or more),5 (hyphal expansion-inhibiting rate: 80% or more),5 (hyphal expansion-inhibiting rate: 80% or more),5 (hyphal expansion-inhibiting rate: 80% or more),5 (hyphal expansion-inhibiting rate: 80% or more),–,5 (hyphal expansion-inhibiting rate: 80% or more),5 (hyphal expansion-inhibiting rate: 80% or more),–,–,5 (hyphal expansion-inhibiting rate: 80% or more)
